According to article PMC6102140, “Structural insight into the human mitochondrial tRNA purine N1-methyltransferase and ribonuclease P complexes” (The Journal of Biological Chemistry, 2018):

Experiments:
[1] = biological target: T1, MRPP1ΔMTS–MRPP2 complex (SDR activity of MRPP2) (Homo sapiens, UniProt Q99714); test: differential scanning fluorimetry; assay type: binding; details: pH 7.5, 150 mM NaCl
T1 construct: gene HSD17B10; co-expressed in E. coli; His-tagged mature MRPP1 (40-403) and untagged full-length MRPP2; 2:4 complex, 194 kDa by SEC-MALS; with tRNA methyltransferase 10 homolog C
T1 sequence (Q99714 2-261): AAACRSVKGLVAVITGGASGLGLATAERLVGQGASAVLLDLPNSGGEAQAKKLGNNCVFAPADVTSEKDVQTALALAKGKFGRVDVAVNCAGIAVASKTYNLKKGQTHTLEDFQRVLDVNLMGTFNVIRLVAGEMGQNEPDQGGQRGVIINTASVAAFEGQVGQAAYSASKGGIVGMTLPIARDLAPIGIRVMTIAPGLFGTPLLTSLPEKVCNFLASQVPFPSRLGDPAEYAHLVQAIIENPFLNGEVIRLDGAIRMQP
T1 sequence (Q7L0Y3 40-403 partner): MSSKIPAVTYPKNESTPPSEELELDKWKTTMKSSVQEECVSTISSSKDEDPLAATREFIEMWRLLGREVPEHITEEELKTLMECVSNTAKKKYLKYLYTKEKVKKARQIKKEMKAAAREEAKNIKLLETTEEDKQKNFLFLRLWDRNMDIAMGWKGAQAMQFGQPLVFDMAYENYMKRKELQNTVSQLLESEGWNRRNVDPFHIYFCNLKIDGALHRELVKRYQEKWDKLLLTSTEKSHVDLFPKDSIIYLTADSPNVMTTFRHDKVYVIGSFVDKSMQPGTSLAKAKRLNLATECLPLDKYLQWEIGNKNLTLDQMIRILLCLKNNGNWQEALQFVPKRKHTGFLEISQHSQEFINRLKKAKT

MRPP1MT+C(Δ194) = biological target: T2, MRPP1MT+C(Δ194) (Homo sapiens, UniProt Q7L0Y3); test: differential scanning fluorimetry; assay type: binding; details: pH 7.5, 150 mM NaCl
T2 construct: gene TRMT10C; methyltransferase domain with C extension, residues 195-403, N-terminal His6 vector, E. coli; monomer
T2 sequence (Q7L0Y3 195-403): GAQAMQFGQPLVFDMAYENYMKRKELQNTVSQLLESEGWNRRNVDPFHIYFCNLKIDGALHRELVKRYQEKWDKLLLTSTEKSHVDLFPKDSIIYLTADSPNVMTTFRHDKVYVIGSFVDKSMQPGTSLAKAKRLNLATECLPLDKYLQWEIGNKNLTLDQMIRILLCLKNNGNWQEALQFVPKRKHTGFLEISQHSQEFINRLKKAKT

[2] = biological target: T3, MRPP1ΔMTS–MRPP2 complex (SAM site / MTase activity of MRPP1) (Homo sapiens, UniProt Q7L0Y3); test: differential scanning fluorimetry; assay type: binding; details: pH 7.5, 150 mM NaCl
T3 construct: gene TRMT10C; co-expressed in E. coli; His-tagged mature MRPP1 (40-403) and untagged full-length MRPP2; 2:4 complex, 194 kDa by SEC-MALS; with 3-hydroxyacyl-CoA dehydrogenase type-2
T3 sequence (Q7L0Y3 40-403): T1 sequence (Q7L0Y3 40-403 partner)
T3 sequence (Q99714 2-261 partner): T1 sequence (Q99714 2-261)

MRPP1ΔMTS = biological target: T4, MRPP1ΔMTS (Homo sapiens, UniProt Q7L0Y3); test: differential scanning fluorimetry; assay type: binding; details: 7.5 mM SAM; pH 7.5, 150 mM NaCl
T4 construct: gene TRMT10C; mature protein without mitochondrial targeting signal, residues 40-403, N-terminal His6 vector, E. coli; monomer/dimer mixture
T4 sequence (Q7L0Y3 40-403): T1 sequence (Q7L0Y3 40-403 partner)

MRPP1MT+C(Δ202) = biological target: T5, MRPP1MT+C(Δ202) (Homo sapiens, UniProt Q7L0Y3); test: X-ray crystal structure, […] Å; assay type: binding; details: co-crystallised with SAM, 4 °C
T5 construct: gene TRMT10C; methyltransferase domain with C extension, residues 203-403, N-terminal His6 vector, E. coli; residues 380-403 disordered; monomer
T5 sequence (Q7L0Y3 203-403): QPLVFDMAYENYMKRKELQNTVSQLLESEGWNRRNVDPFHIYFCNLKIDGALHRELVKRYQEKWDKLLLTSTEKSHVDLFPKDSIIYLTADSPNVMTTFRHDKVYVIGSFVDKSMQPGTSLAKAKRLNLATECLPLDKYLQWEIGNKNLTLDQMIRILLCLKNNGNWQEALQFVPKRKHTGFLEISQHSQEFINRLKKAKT

[3] = biological target: MRPP1N (N domain of MRPP1), expressed alone (human) (UniProt Q7L0Y3); test: SEC; analytical SEC of single proteins, Superdex S200 10/300 GL (or KW403-4F), apparent mass from standards of known Mr, n = 3
[4] = biological target: the molecule itself; test: as above
[5] = biological target: T6, MRPP2, untagged, co-expressed with His-tagged MRPP1 constructs (bicistronic plasmid) (human), Q99714; test: SEC-SAXS; KW403-4F column in line with SAXS, 4.5 mg/ml; 50 mM sodium phosphate pH 7.4, 300 mM NaCl, 5% glycerol, 1% sucrose, 0.5 mM TCEP (for MRPP1, MRPP2 and MRPP1–MRPP2; buffer for MRPP3 alone not told); no tRNA; details: remark: other sources report otherwise
T6 chain: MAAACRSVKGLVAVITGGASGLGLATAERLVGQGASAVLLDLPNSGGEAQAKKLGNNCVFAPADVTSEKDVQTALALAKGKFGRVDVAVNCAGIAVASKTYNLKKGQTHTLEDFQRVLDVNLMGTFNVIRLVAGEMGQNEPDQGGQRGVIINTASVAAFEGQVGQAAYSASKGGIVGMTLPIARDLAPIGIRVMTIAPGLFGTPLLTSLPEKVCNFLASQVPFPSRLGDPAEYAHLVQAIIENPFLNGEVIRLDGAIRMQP

[6] = biological target: T7, MRPP2 (HSD17B10), expressed alone, tag removed (human), Q99714; test: as above; details: remark: other sources report otherwise
T7 chain: T6 chain

[7] = substrate: CC(=O)[C@H]1CC[C@H]2[C@@H]3CC[C@H]4C[C@H](O)CC[C@]4(C)[C@H]3CC[C@]12C; test: 3alpha-HSD (SDR) activity, fluorescence, Michaelis-Menten fit; assay type: biochemical, Homo sapiens; details: MRPP2 alone
Source text: 3alpha-HSD (SDR) activity, fluorescence, Michaelis-Menten fit on MRPP2 | measured using the neurosteroid allopregnanolone as MRPP2 substrate

[8] = substrate: CC(=O)[C@H]1CC[C@H]2[C@@H]3CC[C@H]4C[C@H](O)CC[C@]4(C)[C@H]3CC[C@]12C; test: as above; assay type: biochemical, Homo sapiens; details: in complex with MRPP1ΔMTS
[9] = ligand concentration not in text, text says MTase domain, construct boundary not stated

NC(=O)C1=CN([C@@H]2O[C@H](COP(=O)(O)OP(=O)(O)OC[C@H]3O[C@@H](n4cnc5c(N)ncnc54)[C@H](O)[C@@H]3O)[C@@H](O)[C@H]2O)C=CC1 [NADH]
Tm shift [1]: retained their ability to bind the cofactor (NADH) and methyl donor (SAM)

Nc1ncnc2c1ncn2[C@@H]1O[C@H](CSCC[C@H](N)C(=O)O)[C@@H](O)[C@H]1O [S-adenosyl-homocysteine]
Tm shift (MRPP1MT+C(Δ194); [9]): 5.00 ± 0.18 °C

Nc1ncnc2c1ncn2[C@@H]1O[C@H](CO)[C@@H](OP(=O)(O)O)[C@H]1O [3′-AMP]
Tm shift (MRPP1MT+C(Δ194); [9]): 3.65 ± 0.16 °C

C[S+](CC[C@H](N)C(=O)O)C[C@H]1O[C@@H](n2cnc3c(N)ncnc32)[C@H](O)[C@@H]1O (stereo partly drawn) [SAM, S-adenosyl-L-methionine]
Tm shift [2]: retained their ability to bind the cofactor (NADH) and methyl donor (SAM)
Tm shift (MRPP1ΔMTS): 6.04 ± 0.09 °C
Tm shift (MRPP1MT+C(Δ194); 7.5 mM SAM): 9.75 ± 0.48 °C
X-ray crystal structure, 1.96 Å (MRPP1MT+C(Δ202)): Each MRPP1MT subunit is bound by a SAM molecule

MRPP1N (N domain of MRPP1), expressed alone (from UniProt Q7L0Y3 40-203) (domain or fragment)
stoichiometry N [3]: 2

B1: MRPP1_(ΔMTS) (mature mitochondrial RNase P protein 1, aa 40–403), expressed alone (natural protein, human, UniProt Q7L0Y3 40-403, looked up)
chain: T1 sequence (Q7L0Y3 40-403 partner)
notes: human MRPP1 (TRMT10C/RG9MTD1), 403 aa precursor; residues 40-403, without the mitochondrial targeting signal (1-39); In solution a mixture of monomer and dimer; also called TRMT10C; RG9MTD1; source: E. coli BL21(DE3)-R3-pRARE2, purified
stoichiometry N [4]: 2

B2: MRPP2, untagged, co-expressed with His-tagged MRPP1 constructs (bicistronic plasmid), Q99714 1-261 (natural protein)
chain: T6 chain
stoichiometry N [5]: 4

B3: MRPP2 (HSD17B10), expressed alone, tag removed, Q99714 1-261 (natural protein)
chain: T6 chain
stoichiometry N [6]: 4

B4: MRPP2 (Homo sapiens) (protein)
chain: T1 sequence (Q99714 2-261)
notes: full-length MRPP2, N-terminal His6 (pNIC28-Bsa4), TEV treated, E. coli; homotetramer
Km [7]: 7.70 ± 0.50 µM

B5: MRPP1ΔMTS–MRPP2 complex (SDR activity of MRPP2) (Homo sapiens) (protein)
chain: T1 sequence (Q99714 2-261)
notes: co-expressed in E. coli; His-tagged mature MRPP1 (40-403) and untagged full-length MRPP2; 2:4 complex, 194 kDa by SEC-MALS; with tRNA methyltransferase 10 homolog C
Km [8]: 3.40 ± 0.40 µM
